# Entries after “also recorded” stand apart in the source; their conditions may differ.
# What was measured:
# [1] = system: SNU-46 cell line; test: Cell penetration efficiency using laryngeal cells; format: cell-based; details: SNU-46 laryngeal cells, 4 μM FITC-conjugated CPP, one hour
# Experimental: (§1) Subsequently, to confirm whether the CPPs according to the present invention show excellent cell permeability into different types of cells/tissues, various tissue-derived cells were treated with biologically active molecule-conjugated CPPs to compare its delivery capacity with TAT. As in the previous examples, each cell was aliquoted in a plate at an appropriate density, and cultured in a 10% FBS-added medium under a condition of 37° C. and 5% CO2 for 24 hours. Subsequently, the cells were treated with 4 μM each of FITC-conjugated CPP or FITC-conjugated TAT and incubated for one hour. After the completion of the incubation, the cells were transferred to a sterile tube using 0.25% trypsin and centrifuged to remove the medium. Afterward, the cells were washed with 500 μL of D-PBS twice to completely remove the medium, and finally, resuspended in 400 μL of D-PBS and intracellular fluorescence was measured by flow cytometry (FACSCanto II).
# [2] = system: HEK293T cell line; test: Cell penetration efficiency using kidney cells; format: cell-based; details: 4 μM FITC-conjugated CPP, one hour
# Experimental: as §1
# [3] = system: A-427 cell line; test: Cell penetration efficiency using lung cells; format: cell-based; details: A-427 lung cells, 4 μM FITC-conjugated CPP, one hour
# Experimental: as §1
# [4] = system: HaCAT cells; test: Cell penetration efficiency in human epidermal (skin) cells, 4 μM, flow cytometry; format: cell-based; details: 4 μM FITC-conjugated CPP, one hour
# Experimental: The cell penetration efficiency of the cationic CPPs selected in Example 1 was evaluated using human epidermal cells. In further detail, HaCAT cells, which is a human epidermal cell line, were seeded in 24-well plates to have a cell density of 1×10^7 cells/well, and cultured in 10% FBS-added DMEM under conditions of 37° C. and 5% CO2 for 24 hours. Subsequently, the cells were treated 4 μM each of the FITC-conjugated CPP or FITC-conjugated TAT, and incubated for one hour. After the termination of the incubation, the cells were transferred to a sterile tube using 0.25% trypsin, and the medium was removed through centrifugation. Afterward, the cells were washed with 500 μL of D-PBS twice to completely remove the medium, and finally, resuspended in 400 μL of D-PBS and intracellular fluorescence was measured by flow cytometry (FACSCanto II).
# (§2) To evaluate the cell penetration efficiency of the additionally selected cationic CPPs, an experiment was conducted using human epidermal cells or human neuroblastoma cells. In further detail, HaCAT cells, which is a human epidermal cell line, or SH-SYSY cells, which is a human neuroblastoma cell line, were seeded in 24-well plates to have a cell density of 1×10^7 cells/well and cultured in 10% FBS-added DMEM under conditions of 37° C. and 5% CO2 for 24 hours. In addition, the cells were treated with 4 μM each of FITC-conjugated peptides and FITC-conjugated TAT for one hour. After the completion of the culture, the cells were transferred to a sterile tube using 0.25% trypsin and centrifuged to remove the medium. Afterward, the cells were washed with 500 μL of D-PBS twice to completely remove the medium, and finally, resuspended in 400 μL of D-PBS and intracellular fluorescence was measured by flow cytometry (FACSCanto II).
# as §1
# [5] = system: SH-SY5Y cells; test: Cell penetration efficiency in human neuroblastoma cells, 4 μM, flow cytometry; format: cell-based; details: one hour; for cell permeability compared with TAT: 4 μM FITC-conjugated CPP, flow cytometry; for Score / Score/TAT: 4 μM FITC-conjugated peptide; for Score: intracellular fluorescence by flow cytometry; for Score/TAT: ratio to FITC-conjugated TAT
# Experimental: The cell penetration efficiency of the cationic CPPs selected in Example 1 was evaluated in neuroblastoma. In further detail, SH-SYSY cells, which is a human neuroblastoma cell line, were seeded in 24-well plates to have a cell density of 1×10^7 cells/well, and cultured in 10% FBS-added DMEM under conditions of 37° C. and 5% CO2 for 24 hours. In addition, the cells were treated with 4 μM each of FITC-conjugated CPPs (C12, C14, C16, C31, C52, and C67), or FITC-conjugated TAT, and incubated for one hour. After the termination of the incubation, the cells were transferred to a sterile tube using 0.25% trypsin and centrifuged to remove the medium. Afterward, the cells were washed with 500 μL of D-PBS twice to completely remove the medium, and finally, resuspended in 400 μL of D-PBS and intracellular fluorescence was measured by flow cytometry (FACSCanto II).
# as §2, §1
# [6] = system: HeLa cell line; test: Cell penetration efficiency using cervical cancer cells; format: cell-based; details: 4 μM FITC-conjugated CPP, one hour
# Experimental: as §1
# [7] = system: HepG2 cell line; test: Cell penetration efficiency using liver cells; format: cell-based; details: 4 μM FITC-conjugated CPP, one hour
# Experimental: as §1
# [8] = system: HT1080 cell line; test: Cell penetration efficiency using connective tissue (fibrosarcoma) cells; format: cell-based; details: 4 μM FITC-conjugated CPP, one hour
# Experimental: as §1
# [9] = system: HGB cell line; test: Cell penetration efficiency in glioblastoma cells; format: cell-based, human; details: 4 μM FITC-conjugated CPP, one hour
# Experimental: as §1
# [10] = system: HDF cell line; test: Cell penetration efficiency in skin cells (HDF); format: cell-based; details: 4 μM FITC-conjugated CPP, one hour
# Experimental: as §1
# [11] = system: monocytes; test: Cell penetration efficiency using monocytes; format: cell-based; details: 4 μM FITC-conjugated CPP, one hour
# Experimental: as §1
# [12] = system: macrophages; test: Cell penetration efficiency using macrophages; format: cell-based; details: macrophages differentiated from THP1 cells, 4 μM FITC-conjugated CPP, one hour
# Experimental: as §1, with “II). Macrophages were used by inducing differentiation from THP1 cells. Specifically, the THP-1 cells were aliquoted on a cover glass laid on a 24-well plate to have a density of 6×10^4 cells/well, and after the addition of 100 ng/mL of phorbol 12-myristate 13-acetate (PMA), the cells were incubated for 48 hours to induce the differentiation into macrophages. After 48 hours, the cells were washed with Dulbecco's phosphate buffered saline (DPBS) to perform an experiment.” for “II).”
Sequence,cell permeability compared with TAT [1],cell permeability compared with TAT [2],cell permeability compared with TAT [3],cell permeability compared with TAT [4],cell permeability compared with TAT [5],Score [5],Score/TAT [5],cell permeability compared with TAT [6],cell permeability compared with TAT [7],cell permeability compared with TAT [8],cell permeability compared with TAT [9],cell permeability compared with TAT [10],cell permeability compared with TAT [11],cell permeability compared with TAT [12]
ALVLLRRRRRDRKP [C14],higher cell permeability,higher cell permeability,higher cell permeability,increased cell permeability; also recorded: higher cell permeability,higher cell permeability,1382,2.663,higher cell permeability,higher cell permeability,higher cell permeability,higher cell permeability,higher cell permeability,,
KKRKKRRKKRKVDP [C67],higher cell permeability,higher cell permeability,higher cell permeability,increased cell permeability,higher cell permeability,2328,4.486,higher cell permeability,higher cell permeability,higher cell permeability,higher cell permeability,higher cell permeability,,
KRKLKVRRKLREPR [C115],,,,,higher cell permeability,563,1.085,,,,,,higher cell permeability,
KRRKLRIKRRIRVP [C208],higher cell permeability,,,higher cell permeability,higher cell permeability,1326,2.555,higher cell permeability,,higher cell permeability,,higher cell permeability,higher cell permeability,
LMPSKIRRRKKRKK [C85],higher cell permeability,,,higher cell permeability,higher cell permeability,798,1.538,,,higher cell permeability,,higher cell permeability,higher cell permeability,higher cell permeability
MKRLLKVVRRRRRP [C201],higher cell permeability,,,,higher cell permeability,802,1.545,higher cell permeability,,,higher cell permeability,,,higher cell permeability
RLRALVRRKQRARP [C82],,,higher cell permeability,higher cell permeability,higher cell permeability,628,1.210,,,higher cell permeability,,,higher cell permeability,
RPALKQRRWRRKKK [C117],higher cell permeability,,higher cell permeability,higher cell permeability,higher cell permeability,936,1.803,higher cell permeability,,higher cell permeability,higher cell permeability,higher cell permeability,higher cell permeability,
RPIRKLLRQARQRR [C131],,,,,higher cell permeability,790,1.522,higher cell permeability,,,higher cell permeability,higher cell permeability,higher cell permeability,
RPLVRRRLRRAVRR [C226],higher cell permeability,,,higher cell permeability,,474,0.913,higher cell permeability,,,,,higher cell permeability,higher cell permeability
RRALRRRAQRRGAP [C181],,,,,higher cell permeability,682,1.314,higher cell permeability,,,higher cell permeability,higher cell permeability,higher cell permeability,
RTRLLRRLRALKPR [C223],,,,,,408,0.786,higher cell permeability,,,,,higher cell permeability,
YRPRRKKATKKLKR [C284],,higher cell permeability,,,higher cell permeability,532,1.025,higher cell permeability,,,higher cell permeability,,,higher cell permeability
YRPRRKKITKKLKR [C283],higher cell permeability,higher cell permeability,,,,514,0.990,higher cell permeability,,higher cell permeability,higher cell permeability,,higher cell permeability,higher cell permeability
